Entries after “also recorded” stand apart in the source; their conditions may differ.
Columns and labels:
HIV-1 IIIB = experiment: HIV-1 infectivity assay against non-drug-resistant strain in H9 lymphocytes; assay type: cell-based; settings: for EC50: concentration that inhibits HIV-1IIIB replication by 50%: H9 lymphocytes, p24, day 6 PI; for anti-HIV activity in words: HIV-1 replication in H9 lymphocytes
uninfected H9 cells = experiment: Toxicity to mock-infected H9 cells; assay type: cell-based; settings: human, mock-infected (uninfected) H9 T-cells

SMILES | EC50: concentration that inhibits HIV-1IIIB replication by 50% (HIV-1 IIIB) | IC50 at 6 days (uninfected H9 cells) | anti-HIV activity in words (HIV-1 IIIB)
Cc1cc(=O)oc2c3c(ccc12)[S+]([O-])[C@@H](C)C(OC(=O)C12CCC(C)(C(=O)O1)C2(C)C)C3OC(=O)C12CCC(C)(C(=O)O1)C2(C)C (stereo partly drawn) [9a+9b, 1′-Sulfoxide-2′,4-dimethyl-3′,4′-di-O-(−)-camphanoyl-(+)-cis-khellactone] | no suppression | – | –
Cc1cc(=O)oc2c3c(ccc12)OC(C)(C)[C@H](OC(=O)[C@]12CC[C@](C)(C(=O)O1)C2(C)C)[C@@H]3OC(=O)[C@]12CC[C@](C)(C(=O)O1)C2(C)C [Compound 2] | – | > 39.2 µM | –
Cc1cc(=O)oc2c3c(ccc12)O[C@H](C)[C@@H](OC(=O)[C@]12CC[C@](C)(C(=O)O1)C2(C)C)[C@H]3OC(=O)[C@]12CC[C@](C)(C(=O)O1)C2(C)C [Compound 5b, (2′R,3′R,4′S)-2′,4-Dimethyl-3′,4′-di-O-(−)-camphanoyl-(+)-cis-khellactone] | – | – | low potency
Cc1cc(=O)oc2c3c(ccc12)O[C@H](C)[C@H](OC(=O)[C@]12CC[C@](C)(C(=O)O1)C2(C)C)[C@@H]3OC(=O)[C@]12CC[C@](C)(C(=O)O1)C2(C)C [Compound 6, (2′R,3′S,4′R)-2′,4-Dimethyl-3′,4′-di-O-(−)-camphanoyl-(+)-cis-khellactone] | no suppression | – | inactive at the test concentrations; also recorded: much weaker inhibitory activity
Cc1cc(=O)oc2c3c(ccc12)S[C@H](C)[C@@H](OC(=O)[C@]12CC[C@](C)(C(=O)O1)C2(C)C)[C@H]3OC(=O)[C@]12CC[C@](C)(C(=O)O1)C2(C)C [Compound 7b, (2′R,3′S,4′S) -1′-Thia-2′,4-dimethyl-3′,4′-di-O-(−)-camphanoyl-(+)-cis-khellactone] | no suppression | – | inactivity
Cc1cc(=O)oc2c3c(ccc12)S[C@H](C)[C@H](OC(=O)[C@]12CC[C@](C)(C(=O)O1)C2(C)C)[C@@H]3OC(=O)[C@]12CC[C@](C)(C(=O)O1)C2(C)C [Compound 8, (2′R,3′R,4′R)-1′-Thia-2′,4-Dimethyl-3′,4′-di-O-(−)-camphanoyl-(+)-cis-khellactone] | – | – | much weaker inhibitory activity
Cc1cc(=O)oc2c3c(ccc12)S(=O)(=O)[C@H](C)[C@H](OC(=O)[C@]12CC[C@](C)(C(=O)O1)C2(C)C)[C@@H]3OC(=O)[C@]12CC[C@](C)(C(=O)O1)C2(C)C [Compound 12, (8R,9R,10R)-1′-Sulfone-2′,4-dimethyl-3′,4′-di-O-(−)-camphanoyl-(+)-cis-khellactone] | no suppression | – | –
